The values below are quoted from earlier work in patent publication US20030198619A1, “Formulation and dosage form for increasing oral bioavailability of hydrophilic macromolecules” (priority 2001, published 2003).

Like-named read-outs stand apart in the source and are kept apart here.

The conditions of data set [1]: in vivo.

Turning to `NC(=O)CC[C@@H]1NC(=O)[C@H](Cc2ccccc2)NC(=O)[C@H](Cc2ccc(O)cc2)NC(=O)CCSSC[C@@H](C(=O)N2CCC[C@H]2C(=O)N[C@H](CCCN=C(N)N)C(=O)NCC(N)=O)NC(=O)[C@H](CC(N)=O)NC1=O` [dDAVP, Desmopressin], the oral bioavailability entry in data set [1] is recorded as “about 0.15%”.

In the case of pentosan polysulfate sodium [PPS], the “elimination half-life in urine” value (after oral administration) was 4.8 h. Also, for the setting “in humans”, the oral bioavailability entry is given as “approximately 3%”. Besides, where the note is “mean value following IV injection”, the elimination half-life is 24 h.
